The target in this experiment is T1, Dual specificity protein phosphatase 6 (Rattus norvegicus, UniProt Q64346).
T1 sequence (Q64346 whole entry): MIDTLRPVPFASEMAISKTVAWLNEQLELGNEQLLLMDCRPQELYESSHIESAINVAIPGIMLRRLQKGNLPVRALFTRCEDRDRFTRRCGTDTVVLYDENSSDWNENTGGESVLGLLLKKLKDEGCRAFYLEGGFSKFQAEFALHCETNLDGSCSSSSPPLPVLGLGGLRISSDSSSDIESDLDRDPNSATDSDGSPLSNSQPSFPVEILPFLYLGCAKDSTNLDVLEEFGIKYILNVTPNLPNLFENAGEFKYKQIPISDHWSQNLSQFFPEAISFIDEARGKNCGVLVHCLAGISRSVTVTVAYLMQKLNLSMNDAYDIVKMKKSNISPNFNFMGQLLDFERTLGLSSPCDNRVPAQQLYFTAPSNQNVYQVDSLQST
The experiment is described as follows: MKP-3 phosphatase inhibitors, SAR follow-up, biochemical (AID 1055). The following applies: pH 7; 23 °C.

Each structure is given as a SMILES string.

What is called IC50 is the concentration at which inhibition is half-maximal. The low end stands for greater potency, the high end for weaker potency.

For `Cc1ccc2c(c1)C1C=CCC1C(C(=O)O)N2` (stereo unspecified) [MLS-0067149.0001], the IC50 is 7.9 µM.

The values are drawn from BindingDB's records for doi:10.7270/Q2N87841 (Burnham Center For Chemical Genomics, 2008).
